Assay results from US20260250318A1, “COMPOSITIONS AND METHODS FOR CROSSING THE BLOOD BRAIN BARRIER” (VOYAGER THERAPEUTICS, INC., priority 2022, published 2026).

Tested on: brains, heart, liver, muscle, and DRG of the NHPs
Assay: Maturation of TTM-001 and TTM-002 capsids, NGS enrichment in NHP tissues
Format: in vivo
Settings: NGS, relative to AAV9 control; for Fold Enrichment relative to AAV9, Liver RNA (NHP): TTM-001 and TTM-002 matured AAV capsid variants
Description: This Example describes maturation of the AAV9 capsid variants, TTM-001 (SEQ ID NO: 981 (amino acid) and 983 (DNA), comprising SEQ ID NO: 941 (encoded by SEQ ID NO: 942)) and TTM-002 (SEQ ID NO: 982 (amino acid) and 984 (DNA), comprising SEQ ID NO: […] (encoded by SEQ ID NO: 944)) in NHPs to further enhance their transduction and biodistribution in the central nervous system as well as other tissues, and evolve the AAV capsid variants to provide further cross-species compatibility. Two approaches were used to mature the TTM-001 and TTM-002 capsid sequences in order to randomize and mutate within and around the peptide insert comprised within loop IV of the capsid variant. […] In the first maturation approach, sets of three contiguous amino acids were randomized across the mutagenesis region in the TTM-001 and TTM-002 sequences, which spanned from position 450 to position 466, numbered according to SEQ ID NO: 981 and 982. In the second maturation approach, mutagenic primers were used to introduce point mutations at a low frequency, scattered across the mutagenesis region in the TTM-001 and TTM-002 sequences ranging from position 449 to position 466, numbered according to SEQ ID NO: 981 and 982. AAV capsid variants arising from each maturation approach for TTM-001 and TTM-002 were pooled together, for subsequent testing and characterization in NHPs.
The library of pooled matured AAV capsid variants generated using the first maturation approach and the second maturation approach for the TTM-001 and TTM-002 AAV capsid variants were injected into two NHPs. […] Following RNA recovery and RT-PCR amplification, a systematic NGS enrichment analysis was performed to calculate the fold enrichment ratio relative to an AAV9 control, and the peptides comprised within the variants were identified.
Following the RNA recovery and NGS analysis from the second maturation approach, approximately 680,000 capsid variants were identified. The 680,000 matured capsid variants were then filtered based on samples with a raw virus count greater than 10 and a coefficient of variance (CV) of less than 1, which was calculated for each peptide across the brain samples taken from the two NHPs. […] Using this filtering criteria, this led to approximately 64,000 matured capsid variants.

KTIKRYGSPHSKAQNQQT
Fold Enrichment relative to AAV9, DRG (NHP): 0.000 fold | Fold Enrichment relative to AAV9, Brain (NHP): 0.000 fold | Fold Enrichment relative to AAV9, Heart (NHP): 0.000 fold | Fold Enrichment relative to AAV9, Liver DNA (NHP): 2.022 fold | Fold Enrichment relative to AAV9, Liver RNA (NHP): 11.461 fold | Fold Enrichment relative to AAV9, Muscle (NHP): 0.000 fold

KTINALRSPHSKAQNQQT
Fold Enrichment relative to AAV9, DRG (NHP): 0.000 fold | Fold Enrichment relative to AAV9, Brain (NHP): 0.000 fold | Fold Enrichment relative to AAV9, Heart (NHP): 0.000 fold | Fold Enrichment relative to AAV9, Liver DNA (NHP): 1.655 fold | Fold Enrichment relative to AAV9, Liver RNA (NHP): 20.053 fold | Fold Enrichment relative to AAV9, Muscle (NHP): 0.000 fold

KTINCRTSPHSKAQNQQT
Fold Enrichment relative to AAV9, DRG (NHP): 0.000 fold | Fold Enrichment relative to AAV9, Brain (NHP): 0.000 fold | Fold Enrichment relative to AAV9, Heart (NHP): 0.000 fold | Fold Enrichment relative to AAV9, Liver DNA (NHP): 1.117 fold | Fold Enrichment relative to AAV9, Liver RNA (NHP): 28.301 fold | Fold Enrichment relative to AAV9, Muscle (NHP): 0.000 fold

KTINFTRSPHSKAQNQQT
Fold Enrichment relative to AAV9, DRG (NHP): 0.000 fold | Fold Enrichment relative to AAV9, Brain (NHP): 0.000 fold | Fold Enrichment relative to AAV9, Heart (NHP): 0.000 fold | Fold Enrichment relative to AAV9, Liver DNA (NHP): 3.751 fold | Fold Enrichment relative to AAV9, Liver RNA (NHP): 14.908 fold | Fold Enrichment relative to AAV9, Muscle (NHP): 0.000 fold

KTINGAYSPHRKAQNQQT
Fold Enrichment relative to AAV9, DRG (NHP): 0.000 fold | Fold Enrichment relative to AAV9, Brain (NHP): 0.000 fold | Fold Enrichment relative to AAV9, Heart (NHP): 0.000 fold | Fold Enrichment relative to AAV9, Liver DNA (NHP): 1.283 fold | Fold Enrichment relative to AAV9, Liver RNA (NHP): 40.969 fold | Fold Enrichment relative to AAV9, Muscle (NHP): 0.000 fold

KTINGLDSPHRSRQNQQT
Fold Enrichment relative to AAV9, DRG (NHP): 0.000 fold | Fold Enrichment relative to AAV9, Brain (NHP): 0.000 fold | Fold Enrichment relative to AAV9, Heart (NHP): 0.000 fold | Fold Enrichment relative to AAV9, Liver DNA (NHP): 0.321 fold | Fold Enrichment relative to AAV9, Liver RNA (NHP): 26.403 fold | Fold Enrichment relative to AAV9, Muscle (NHP): 0.000 fold

KTINGLVSPHRKAQNQQT
Fold Enrichment relative to AAV9, DRG (NHP): 0.000 fold | Fold Enrichment relative to AAV9, Brain (NHP): 0.000 fold | Fold Enrichment relative to AAV9, Heart (NHP): 0.000 fold | Fold Enrichment relative to AAV9, Liver DNA (NHP): 2.739 fold | Fold Enrichment relative to AAV9, Liver RNA (NHP): 23.417 fold | Fold Enrichment relative to AAV9, Muscle (NHP): 0.000 fold

KTINGPWSPHRKAQNQQT
Fold Enrichment relative to AAV9, DRG (NHP): 0.000 fold | Fold Enrichment relative to AAV9, Brain (NHP): 0.000 fold | Fold Enrichment relative to AAV9, Heart (NHP): 0.000 fold | Fold Enrichment relative to AAV9, Liver DNA (NHP): 0.434 fold | Fold Enrichment relative to AAV9, Liver RNA (NHP): 12.103 fold | Fold Enrichment relative to AAV9, Muscle (NHP): 0.000 fold

KTINGRPSPHGKAQNQQT
Fold Enrichment relative to AAV9, DRG (NHP): 0.000 fold | Fold Enrichment relative to AAV9, Brain (NHP): 0.000 fold | Fold Enrichment relative to AAV9, Heart (NHP): 0.000 fold | Fold Enrichment relative to AAV9, Liver DNA (NHP): 0.705 fold | Fold Enrichment relative to AAV9, Liver RNA (NHP): 14.442 fold | Fold Enrichment relative to AAV9, Muscle (NHP): 0.000 fold

KTINGRRSPHGKAQNQQT
Fold Enrichment relative to AAV9, DRG (NHP): 0.000 fold | Fold Enrichment relative to AAV9, Brain (NHP): 0.000 fold | Fold Enrichment relative to AAV9, Heart (NHP): 0.000 fold | Fold Enrichment relative to AAV9, Liver DNA (NHP): 3.259 fold | Fold Enrichment relative to AAV9, Liver RNA (NHP): 37.728 fold | Fold Enrichment relative to AAV9, Muscle (NHP): 0.000 fold

KTINGRRSPHMKAQNQQT
Fold Enrichment relative to AAV9, DRG (NHP): 0.000 fold | Fold Enrichment relative to AAV9, Brain (NHP): 0.000 fold | Fold Enrichment relative to AAV9, Heart (NHP): 0.000 fold | Fold Enrichment relative to AAV9, Liver DNA (NHP): 3.510 fold | Fold Enrichment relative to AAV9, Liver RNA (NHP): 12.136 fold | Fold Enrichment relative to AAV9, Muscle (NHP): 0.000 fold

KTINGSGSPHCALQNQQT
Fold Enrichment relative to AAV9, DRG (NHP): 0.000 fold | Fold Enrichment relative to AAV9, Brain (NHP): 0.000 fold | Fold Enrichment relative to AAV9, Heart (NHP): 0.000 fold | Fold Enrichment relative to AAV9, Liver DNA (NHP): 3.867 fold | Fold Enrichment relative to AAV9, Liver RNA (NHP): 11.404 fold | Fold Enrichment relative to AAV9, Muscle (NHP): 0.000 fold
